These results are taken from article PMC12152178 (Communications Medicine, 2025).

In data set [1] the test system is D. russelii venom proteases (SVMP). Description: Proteolytic activity of venom and its inhibition. The data set is classed as biochemical, Daboia russelii. The settings on record: for IC50: read-out: IC50 (inhibition of venom proteolytic activity).
The test system of data set [2] is D. russelii venom-induced lethality. The data set can be described thus: Preclinical efficacy: preincubation model of envenoming. The data set is classed as in vivo, mice. The following applies: for Percentage of survival: i.v., 24 h, n=5.
For data set [3], the system named is murine C2C12 skeletal muscle myoblast cells. The data set is classed as cell-based. The following applies: for cytotoxicity of the inhibitor alone: 100 μM, C2C12 cells, no venom; for reduction of venom-induced cytotoxicity: GA, KL and MP venoms, SMI 0–100 μM.
Data set [4] has as its system human platelet-poor plasma, extrinsic pathway (PT). The data set can be described thus: Coagulation assay: prothrombin time. The data set is classed as biochemical.
In data set [5] the test system is human platelet-poor plasma, intrinsic pathway (aPTT). Description: Coagulation assay: activated partial thromboplastin time. The data set is classed as biochemical.
Data set [6] relates to D. russelii venom-induced lethality. The data set can be described thus: Preclinical efficacy: rescue experiments. The data set is classed as in vivo, mice. The settings on record: 24 h, n=5.
The next data set deals with human fibrinogen. The data set can be described thus: Fibrinogenolytic activity of venom and its inhibition. The data set is classed as biochemical.
[7] abbreviates: RJ venom, SMI 120 µg/mouse, venom alone mean 3 min.
Where [8] appears, read: TN, WB and RJ venoms, SMI 0–100 μM (each).
Where [9] appears, read: KA venom 2.5x LD50 preincubated with SMI 60 µg/mouse.
Setting [10] is: PB venom 2.5x LD50 preincubated with SMI 60 µg/mouse.
[11] abbreviates: PB venom 2.5x LD50 preincubated with SMI 120 µg/mouse.
Setting [12] is: RJ venom 2.5x LD50 preincubated with SMI 60 µg/mouse.
The mark [13] stands for this setting: TN venom 2.5x LD50 preincubated with SMI 60 µg/mouse.
[14] abbreviates: WB venom 2.5x LD50 preincubated with SMI 60 µg/mouse.
Setting [15] is: MP venom 2.5x LD50 i.p., SMI 120 µg/mouse (each) i.v. at 0 min.
Setting [16] is: KA and RJ venoms, SMI up to 100 µM (each).
Where [17] appears, read: TN, KL, GA and MH venoms, SMI 0–100 µM, concentration-dependent.

Read-outs that look alike come from different tables or passages of the source.

With `N=C(N)c1ccc2cc(OC(=O)c3ccc(N=C(N)N)cc3)ccc2c1` [nafamostat, Nafamostat], the “inhibition of the protease activity of D. russelii venom” value in data set [1] (AP venom (Fig. S1), 0–100 µM) is reported as “failed to inhibit”. Further, the “extension of survival time over venom alone” value (“extension … over venom alone” below) in data set [2] (RJ venom, SMI 120 µg/mouse) worked out at 160 x. Moreover, the “mean survival time of mice (onset of lethality)” value in data set [2] (setting [7]) is 480 min.

Regarding `CCc1c(C(=O)C(N)=O)c2c(OCC(=O)O)cccc2n1Cc1ccccc1` [varespladib, Varespladib], the “cytotoxicity of the inhibitor alone” value in data set [3] is “Neither inhibitor exhibited cytotoxicity”. In data set [3], the “reduction of venom-induced cytotoxicity” value is 72.88–94.85%. For the same compound, the “inhibition of venom-induced cytotoxicity” value was 88.67% in data set [3] (MH venom 50 µg/ml, SMI 0–100 µM); 85.32% in data set [3] (PB venom 50 µg/ml, SMI 0–100 µM); 41.20–70.51% in data set [3] (setting [8]). Also, the “inhibition of venom-induced PT alterations” value in data set [4] (TN venom, 100 µM) is “failed to prevent coagulopathy”. Besides, in data set [5] (TN venom, 100 µM), the “inhibition of venom-induced aPTT alterations” value is “failed to prevent coagulopathy”. Further, the Percentage of survival entry in data set [2] (AP venom 2.5x LD50 preincubated 30 min with SMI 60 µg/mouse) is “failed to protect”; in data set [2] (AP venom 2.5x LD50 preincubated with SMI 120 µg/mouse), “failing to prevent lethality”; in data set [2] (setting [9]), “failed to protect”; in data set [2] (KA venom 2.5x LD50 preincubated with SMI 120 µg/mouse), “failing to prevent lethality”; in data set [2] (setting [10]) it was “failed to protect”; in data set [2] (PB venom 2.5x LD50 preincubated with SMI 90 µg/mouse), 80%. The Percentage of survival result is listed as “complete protection” in data set [2] (setting [11]); 40% in data set [2] (setting [12]); 60% in data set [2] (RJ venom 2.5x LD50 preincubated with SMI 90 µg/mouse); “failed to protect” in data set [2] (setting [13]); “completely protected” in data set [2] (TN venom 2.5x LD50 preincubated with SMI 90 µg/mouse); 40% in data set [2] (setting [14]). In data set [2] (KA and AP venoms (both), SMI 120 µg/mouse), the “extension … over venom alone” value is listed as 13 x. Further, in data set [2] (KA and AP venoms (both), SMI 120 µg/mouse, venom alone mean 3 min), the “mean survival time of mice” value stood at 39 min. Also, the “% of survival” value in data set [6] (setting [15]) was 60%; in data set [6] (PB venom 2.5x LD50 i.p., SMI 120 µg/mouse i.v. at 30 min) it was “complete protection”.

Consider `CNC(=O)[C@@H](NC(=O)[C@H](CC(C)C)[C@H](O)C(=O)NO)C(C)(C)C` [marimastat, Marimastat], for which the IC50 in data set [1] (GA (Goa) venom) is 2330 nM; in data set [1] (MP venom), 1510 nM; in data set [1] (RJ (Rajasthan) venom), 1670 nM. Besides, the “cytotoxicity of the inhibitor alone” value in data set [3] was “Neither inhibitor exhibited cytotoxicity”. In addition, the “inhibition of venom-induced cytotoxicity” value in data set [3] (AP venom 50 µg/ml, SMI 0–100 µM) is listed as 94.89%; in data set [3] (setting [8]) it was 41.20–70.51%. Further, the “reduction of venom-induced cytotoxicity” value in data set [3] is 72.88–94.85%. Also, the “inhibition of venom-induced PT alterations” value in data set [4] (setting [16]) is listed as “ineffective”; in data set [4] (MP and AP venoms, SMI up to 100 µM (each)), “failed to inhibit”; in data set [4] (PB and WB venoms, SMI 0–100 µM), “capable of inhibiting”. Also, in data set [4] (setting [17]), the “reversal of venom-induced PT alterations” value is on record as “reversed”. In addition, the “inhibition of venom-induced aPTT alterations” value in data set [5] (AP and MP venoms, SMI 0–100 µM) is on record as “capable of inhibiting”; in data set [5] (setting [16]), “ineffective”; in data set [5] (PB and WB venoms, SMI up to 100 µM (each)), “failed to inhibit”. Besides, in data set [5] (setting [17]), the “reversal of venom-induced aPTT alterations” value is on record as “reversed”. Also, the “protection against venom-induced fibrinogenolysis” value in the data set on human fibrinogen (PB, KA, KL, AP, GA and RJ venoms, SMI 100 µM) is “very effective”; in the data set with human fibrinogen (TN, MH, MP and WB venoms, SMI 100 µM (each)), “did not completely neutralise”. In addition, the Percentage of survival result is “sufficient to neutralise the lethal effects” in data set [2] (setting [9]); “failed to protect” in data set [2] (setting [10]); “complete protection” in data set [2] (setting [11]); “failed to protect” in data set [2] (setting [12]); “failed to protect” in data set [2] (setting [13]); “complete protection” in data set [2] (TN venom 2.5x LD50 preincubated with SMI 120 µg/mouse). In data set [2] (setting [14]), the Percentage of survival result is reported as “failed to protect”. For the same compound, the “extension … over venom alone” value in data set [2] (RJ venom, SMI 120 µg/mouse) was found to be 12 x. In addition, in data set [2] (setting [7]), the “mean survival time of mice (onset of lethality)” value stood at 36 min. The “% of survival” value was 40% in data set [6] (KA venom 2.5x LD50 i.p., SMI 120 µg/mouse i.v. at 0 min); 40% in data set [6] (setting [15]); “ineffective” in data set [6] (PB venom 2.5x LD50 i.p., SMI 120 µg/mouse i.v. at 0 min).

Usually IC50 stands for the concentration that gives 50% inhibition.
